Experimental findings from patent publication US20260240762A1, “COMPOUND AND FORMULATION FOR SYSTEMIC THERAPY BY ORAL TRANSMUCOSAL ADMINISTRATION” (CUROVIR AB, priority 2023, published 2026) are described below.

A value given as a limit tells only on which side of the number the result lay.

Common to all, as to type: biochemical
For experiment [1], the target named is PI4K2A (Homo sapiens, UniProt Q9BTU6). Nature of the experiment: PI4 kinase inhibition, ADP-Glo Kinase assay. The settings on record: 60 min, 10 μM ATP, not tested at concentration higher than 10 μM. The method, then: (§1) Inhibition of PI4 kinases was performed with the ADP-Glo™ Kinase assay which measures the ADP formed from a kinase reaction, where ADP is converted into ATP and then converted into light by Ultra-Glo™ Luciferase. Reactions were carried out for 60 min at 10 μM ATP. The luminescent signal produced in reaction is proportional to the kinase activity.

In experiment [2] the target is PI4K2B (Homo sapiens, UniProt Q8TCG2). As to the kind of experiment: PI4 kinase inhibition, ADP-Glo Kinase assay. The settings on record: 60 min, 10 μM ATP, not tested at concentration higher than 10 μM. The method, then: as §1
Experiment [3] has as its target PI4KB (Homo sapiens, UniProt Q9UBF8). As to the kind of experiment: PI4 kinase inhibition, ADP-Glo Kinase assay. The settings on record: 60 min, 10 μM ATP. The method, then: as §1
Experiment [4] has as its target PI4KA (Homo sapiens, UniProt P42356). As to the kind of experiment: PI4 kinase inhibition, ADP-Glo Kinase assay. As to conditions: 60 min, 10 μM ATP. The method, then: as §1
(ADP-Glo first removes unused ATP, then detects ADP through luciferase.)

Experiment [5] concerns the target PI3KA (p110a/p85a) (Homo sapiens, UniProt P42336). As to the kind of experiment: PI3 kinase inhibition, HTRF assay. The text has this:
(§2) Inhibition of PI3 kinases was studied using the HTRF (homogeneous time-resolved fluorescence) assay which is a universal method for identifying and characterizing the phosphotransferase activity induced by any ATP/ADP dependent target. The formation of ADP was detected by a specific monoclonal antibody labeled with Eu^3+ cryptate; the amount of ADP formed directly correlates with the amount of phosphorylated substrate in kinase assays.
A general note: In TR-FRET formats the signal depends on donor and acceptor labels being close together.

Experiment [6] concerns the target PI3K (p120g) (Homo sapiens, UniProt P48736). As to the kind of experiment: PI3 kinase inhibition, HTRF assay. As to conditions: not tested at concentration higher than 1 μM.
Text: as §2

The target in experiment [7] is PI3KB (p110b/p85a) (Homo sapiens, UniProt P42338). As to the kind of experiment: PI3 kinase inhibition, HTRF assay.
Text: as §2

Chain of PI4KA (P42356 whole entry, species assumed): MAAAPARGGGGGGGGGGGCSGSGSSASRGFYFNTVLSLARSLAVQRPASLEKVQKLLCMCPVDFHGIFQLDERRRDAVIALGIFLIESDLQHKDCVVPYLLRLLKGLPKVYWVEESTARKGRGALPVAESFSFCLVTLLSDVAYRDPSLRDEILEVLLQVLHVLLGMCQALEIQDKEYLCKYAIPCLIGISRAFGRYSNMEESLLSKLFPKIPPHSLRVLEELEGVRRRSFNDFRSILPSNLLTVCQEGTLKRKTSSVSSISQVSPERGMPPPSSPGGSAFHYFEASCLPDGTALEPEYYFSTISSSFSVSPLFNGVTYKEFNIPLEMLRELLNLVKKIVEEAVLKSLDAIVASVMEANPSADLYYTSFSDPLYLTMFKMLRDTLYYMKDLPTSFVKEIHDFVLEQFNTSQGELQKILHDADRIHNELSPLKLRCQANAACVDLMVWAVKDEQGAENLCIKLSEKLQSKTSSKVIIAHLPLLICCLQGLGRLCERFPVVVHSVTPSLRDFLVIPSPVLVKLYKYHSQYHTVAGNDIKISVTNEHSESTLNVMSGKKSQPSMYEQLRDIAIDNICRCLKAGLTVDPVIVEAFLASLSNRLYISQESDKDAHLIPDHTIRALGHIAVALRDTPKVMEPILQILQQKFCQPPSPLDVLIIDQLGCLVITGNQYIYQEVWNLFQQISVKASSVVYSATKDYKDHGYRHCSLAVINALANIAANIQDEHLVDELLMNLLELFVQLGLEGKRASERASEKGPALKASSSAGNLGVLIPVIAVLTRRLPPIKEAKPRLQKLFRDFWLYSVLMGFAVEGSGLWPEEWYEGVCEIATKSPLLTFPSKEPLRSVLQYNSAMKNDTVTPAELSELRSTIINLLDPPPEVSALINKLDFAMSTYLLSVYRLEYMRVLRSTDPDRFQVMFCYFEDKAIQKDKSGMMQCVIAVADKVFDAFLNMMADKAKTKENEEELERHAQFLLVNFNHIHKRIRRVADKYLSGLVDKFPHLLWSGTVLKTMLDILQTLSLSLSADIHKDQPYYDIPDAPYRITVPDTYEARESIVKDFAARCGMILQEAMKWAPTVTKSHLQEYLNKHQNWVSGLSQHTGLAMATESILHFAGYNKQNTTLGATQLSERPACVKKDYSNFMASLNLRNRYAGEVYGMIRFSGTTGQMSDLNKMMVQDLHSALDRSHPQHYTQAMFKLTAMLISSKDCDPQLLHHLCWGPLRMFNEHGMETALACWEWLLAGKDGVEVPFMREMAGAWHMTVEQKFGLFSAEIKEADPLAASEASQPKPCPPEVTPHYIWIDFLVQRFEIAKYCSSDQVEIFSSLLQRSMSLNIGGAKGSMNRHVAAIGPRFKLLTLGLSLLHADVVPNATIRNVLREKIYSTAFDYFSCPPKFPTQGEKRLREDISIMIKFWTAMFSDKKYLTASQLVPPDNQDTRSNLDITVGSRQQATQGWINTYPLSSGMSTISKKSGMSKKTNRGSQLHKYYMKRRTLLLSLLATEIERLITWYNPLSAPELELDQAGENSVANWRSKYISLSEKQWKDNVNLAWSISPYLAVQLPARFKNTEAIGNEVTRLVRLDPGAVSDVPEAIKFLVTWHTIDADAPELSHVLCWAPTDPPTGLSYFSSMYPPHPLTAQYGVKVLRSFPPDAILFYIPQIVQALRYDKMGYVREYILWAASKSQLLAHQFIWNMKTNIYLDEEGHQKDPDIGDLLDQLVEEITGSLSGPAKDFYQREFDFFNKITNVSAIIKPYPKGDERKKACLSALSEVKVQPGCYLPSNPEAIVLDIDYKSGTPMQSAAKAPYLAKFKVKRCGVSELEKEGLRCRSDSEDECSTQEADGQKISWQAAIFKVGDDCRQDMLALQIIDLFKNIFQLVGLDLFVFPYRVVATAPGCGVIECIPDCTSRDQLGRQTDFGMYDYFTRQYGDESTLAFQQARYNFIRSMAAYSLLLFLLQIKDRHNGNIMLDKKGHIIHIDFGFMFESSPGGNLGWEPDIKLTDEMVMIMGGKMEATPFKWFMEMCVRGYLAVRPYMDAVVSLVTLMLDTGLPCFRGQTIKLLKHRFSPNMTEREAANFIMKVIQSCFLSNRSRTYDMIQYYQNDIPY
Chain of PI3KA (p110a/p85a) (P42336 whole entry): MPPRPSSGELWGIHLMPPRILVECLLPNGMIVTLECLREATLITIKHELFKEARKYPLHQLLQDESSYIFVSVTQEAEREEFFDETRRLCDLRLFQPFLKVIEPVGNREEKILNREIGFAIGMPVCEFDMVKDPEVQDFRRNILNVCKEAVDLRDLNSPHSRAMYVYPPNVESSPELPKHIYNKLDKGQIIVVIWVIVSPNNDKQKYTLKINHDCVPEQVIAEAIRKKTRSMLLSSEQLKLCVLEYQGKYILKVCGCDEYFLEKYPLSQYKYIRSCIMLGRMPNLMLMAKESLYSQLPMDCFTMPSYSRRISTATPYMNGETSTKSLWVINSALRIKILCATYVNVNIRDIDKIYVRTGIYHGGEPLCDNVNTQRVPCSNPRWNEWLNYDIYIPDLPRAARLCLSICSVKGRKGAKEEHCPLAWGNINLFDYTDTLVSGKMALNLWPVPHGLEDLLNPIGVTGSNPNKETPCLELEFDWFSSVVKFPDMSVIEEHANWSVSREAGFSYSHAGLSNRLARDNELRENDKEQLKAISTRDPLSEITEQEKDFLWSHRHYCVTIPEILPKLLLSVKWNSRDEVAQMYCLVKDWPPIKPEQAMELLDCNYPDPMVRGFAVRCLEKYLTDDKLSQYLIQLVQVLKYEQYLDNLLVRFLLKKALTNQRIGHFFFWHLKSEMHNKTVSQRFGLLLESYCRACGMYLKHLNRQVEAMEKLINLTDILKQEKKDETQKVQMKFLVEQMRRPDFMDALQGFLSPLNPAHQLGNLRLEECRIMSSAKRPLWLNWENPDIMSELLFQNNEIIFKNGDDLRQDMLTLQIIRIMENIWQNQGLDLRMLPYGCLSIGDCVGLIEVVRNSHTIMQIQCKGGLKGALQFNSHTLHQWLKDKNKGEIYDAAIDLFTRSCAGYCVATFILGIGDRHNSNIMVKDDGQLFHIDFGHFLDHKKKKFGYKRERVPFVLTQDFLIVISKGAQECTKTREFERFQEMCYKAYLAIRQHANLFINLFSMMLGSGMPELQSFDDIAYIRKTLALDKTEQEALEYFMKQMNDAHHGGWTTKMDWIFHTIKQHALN
Chain of PI3KA (p110a/p85a) (P27986 whole entry partner): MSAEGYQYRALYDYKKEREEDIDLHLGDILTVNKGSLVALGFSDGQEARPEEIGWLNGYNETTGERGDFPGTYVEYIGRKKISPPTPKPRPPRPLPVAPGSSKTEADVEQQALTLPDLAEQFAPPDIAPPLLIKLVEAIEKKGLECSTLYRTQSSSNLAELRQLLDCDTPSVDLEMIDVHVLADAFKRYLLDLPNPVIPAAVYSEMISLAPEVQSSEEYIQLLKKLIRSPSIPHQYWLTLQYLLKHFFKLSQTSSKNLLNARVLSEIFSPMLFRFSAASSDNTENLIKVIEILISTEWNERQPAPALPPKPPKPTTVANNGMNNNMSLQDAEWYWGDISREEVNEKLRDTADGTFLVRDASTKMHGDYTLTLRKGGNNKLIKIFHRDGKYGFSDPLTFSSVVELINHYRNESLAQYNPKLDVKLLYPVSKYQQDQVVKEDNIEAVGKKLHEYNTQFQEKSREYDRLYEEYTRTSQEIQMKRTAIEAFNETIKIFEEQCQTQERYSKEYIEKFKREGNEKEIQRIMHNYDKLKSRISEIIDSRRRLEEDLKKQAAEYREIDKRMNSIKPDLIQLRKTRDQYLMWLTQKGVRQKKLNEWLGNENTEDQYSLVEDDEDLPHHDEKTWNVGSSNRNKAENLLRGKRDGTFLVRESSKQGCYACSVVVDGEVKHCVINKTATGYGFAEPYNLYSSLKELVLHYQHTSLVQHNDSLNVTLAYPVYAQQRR
Chain of PI4K2B (Q8TCG2 whole entry, species assumed): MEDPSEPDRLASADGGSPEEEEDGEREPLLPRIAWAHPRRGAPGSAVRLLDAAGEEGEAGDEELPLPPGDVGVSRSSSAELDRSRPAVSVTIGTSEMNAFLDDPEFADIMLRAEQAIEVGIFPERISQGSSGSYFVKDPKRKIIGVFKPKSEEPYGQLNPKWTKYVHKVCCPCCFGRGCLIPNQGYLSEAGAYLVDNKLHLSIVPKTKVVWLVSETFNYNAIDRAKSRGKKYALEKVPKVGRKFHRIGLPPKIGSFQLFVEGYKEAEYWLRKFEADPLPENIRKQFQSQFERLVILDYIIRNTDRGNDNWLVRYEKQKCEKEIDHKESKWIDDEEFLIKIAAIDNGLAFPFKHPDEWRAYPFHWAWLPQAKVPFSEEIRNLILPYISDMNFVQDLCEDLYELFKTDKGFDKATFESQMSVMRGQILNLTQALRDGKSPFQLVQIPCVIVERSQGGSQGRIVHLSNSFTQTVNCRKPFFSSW
Chain of PI4K2A (Q9BTU6 whole entry, species assumed): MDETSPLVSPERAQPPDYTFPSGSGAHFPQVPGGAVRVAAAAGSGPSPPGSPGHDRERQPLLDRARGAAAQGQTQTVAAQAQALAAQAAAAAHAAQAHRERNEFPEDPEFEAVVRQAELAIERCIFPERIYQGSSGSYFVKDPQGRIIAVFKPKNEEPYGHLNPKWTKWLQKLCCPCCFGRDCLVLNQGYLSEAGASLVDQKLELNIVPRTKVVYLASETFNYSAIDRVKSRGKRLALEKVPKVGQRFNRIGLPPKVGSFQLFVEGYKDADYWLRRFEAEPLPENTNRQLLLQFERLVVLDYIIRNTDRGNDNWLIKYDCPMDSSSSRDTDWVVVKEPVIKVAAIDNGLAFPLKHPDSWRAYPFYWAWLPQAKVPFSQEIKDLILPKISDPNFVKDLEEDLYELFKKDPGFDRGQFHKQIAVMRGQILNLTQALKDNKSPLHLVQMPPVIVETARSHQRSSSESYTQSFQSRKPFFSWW

By IC50 is commonly meant the midpoint of a concentration-inhibition curve. A low value points to inhibition by little substance. `Cc1cc(CNc2cc(C)nc3c(-c4ccc5c(c4)c(C)nn5C)c(C)nn23)ccn1` [3-(1,3-dimethyl-1H-indazol-5-yl)-2,5-dimethyl-N-[(2-methylpyridin-4-yl)methyl]pyrazolo[1,5-a]pyrimidin-7-amine]: the IC50 was more than 10 µM in experiment [1]; more than 10 µM in experiment [2]; 0.0006 µM in experiment [3]; 1.1 µM in experiment [4]; 3.4 µM in experiment [5]; more than 1 µM in experiment [6]. For the same compound, half-maximal inhibition in experiment [7] (IC50) required 5.4 µM.
